In patent US20240246940A1, “HETEROARYL DERIVATIVE COMPOUND AND USE THEREOF” (VORONOI INC., priority 2021, published 2024):

How the values were obtained:
[1] = test system: HaCaT cells (EGFR expressing cell line); test: HaCaT cell proliferation inhibitory activity (CellTiter-Glo, 72 hours); type: cell-based; details: Homo sapiens
In short: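 Luminescent viability read-out, growth % vs control → GI50, n=3. Seeding: SK-BR-3/BT-474 5000 cells, 48 h pre-plating; N-87 5000, 24 h; HaCaT 3000, 24 h. Dose ranges: 0.2 nM–10 μM (SK-BR-3, BT-474; 3-fold), […]–5 μM (N-87; 5-fold), 0.8 nM–45 μM (HaCaT; 3-fold).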

[2] = test system: BT-474 cells (HER2 overexpressing cell line); test: BT-474 cell proliferation inhibitory activity (CellTiter-Glo, 120 hours); type: cell-based; details: Homo sapiens
Method: To evaluate the cell proliferation inhibitory activity of the compound according to the present invention on HER2 and EGFR kinases, the following method was performed using HER2 overexpressing cell lines (SK-BR-3, BT-474, and N-87) and EGFR expressing cell line (HaCaT).
McCOY'S 5A supplemented with 10% FBS was used for SK-BR-3 cells, RPMI-1640 medium supplemented with 20% FBS was used for BT-474 cancer cells, and RPMI-1640 medium supplemented with 10% FBS was used for N-87 cancer cells. DMEM supplemented with 10% FBS was used for HaCaT cells.
For SK-BR-3 cells, 5000 cells were aliquoted into each well of a white clear bottom 96 well plate (Corning) 48 hours before treatment with the compounds of Examples. For BT-474 cells, 5000 cells were aliquoted into each well of a white clear bottom 96 well plate (Corning) 48 hours before treatment with the compounds of Examples. For N-87 cells, 5000 cells were aliquoted into each well of a white clear bottom 96 well plate (Corning) 24 hours before treatment with the compounds of Examples. For HaCaT cells, 3000 cells were aliquoted into each well of a white clear bottom 96 well plate (Corning) 24 hours before treatment with the compounds of Examples. For SK-BR-3 cells and BT-474 cells, the compounds of Examples were diluted in dimethyl sulfoxide (three-fold dilution, a total of 11 concentrations) and injected each in an amount of 1 μl to a final concentration of 0.2 nM to 10 μM. For N-87 cells, the compounds of Examples were diluted in dimethyl sulfoxide (five-fold dilution, a total of 11 concentrations) and injected each in an amount of 0.5 μl to a final concentration of […] to 5 μM. For HaCaT cells, the compounds of Examples were diluted in dimethyl sulfoxide (three-fold dilution, a total of 11 concentrations) and injected each in an amount of 0.5 μl to a final concentration of 0.8 nM to 45 μM. For the measurement of living cells, the cells were stored at room temperature for 10 minutes using CellTiter-Glo cell viability reagent (Promega) after a certain period of time (SK-BR-3: 120 hours, BT-474: 120 hours, N-87: 72 hours, and HaCaT: 72 hours) post treatment with the compounds of Examples, and the luminescence intensity thereof was measured using a reader (SynergyNeo, Biotek). Each test was repeated three times.
The result values were calculated as a cell growth rate (%) compared to those of the control group. A graph was created using the GraphPad Prism version 5.0 program, and GI50 values were calculated.

SMILES	GI50 [1] [nM]	GI50 [2] [nM]
COc1cc2ncnc(Nc3cc(-c4ccc(F)cc4F)c(F)cc3OC)c2cc1NC(=O)/C=C/[C@H]1CCCN1C [Example 308, (R,E)-N-(7-methoxy-4-((2′,4′,6-trifluoro-4-methoxy-[1,1′-biphenyl]-3-yl)amino)quinazolin-6-yl)-3-(1-methylpyrrolidin-2-yl)acrylamide]	≤ 150	≤ 150
COc1cc2ncnc(Nc3cc(-c4ccco4)ccc3OC)c2cc1NC(=O)/C(F)=C\[C@@H]1CCCN1C [Example 309, (S,E)-2-fluoro-N-(4-((5-(furan-2-yl)-2-methoxyphenyl)amino)-7-methoxyquinazolin-6-yl)-3-(1-methylpyrrolidin-2-yl)acrylamide]	≤ 150	≤ 150
COc1cc2ncnc(Nc3cc(-c4ccco4)ccc3OC)c2cc1NC(=O)/C=C/CN1CCN(C)CC1 [Example 314, (E)-N-(4-((5-(furan-2-yl)-2-methoxyphenyl)amino)-7-methoxyquinazolin-6-yl)-4-(4-methylpiperazin-1-yl)but-2-enamide]	≤ 150	≤ 150
COc1cc2ncnc(Nc3cc(-c4ccco4)ccc3OC)c2cc1NC(=O)/C=C/CN1CCOCC1 [Example 315, (E)-N-(4-((5-(furan-2-yl)-2-methoxyphenyl)amino)-7-methoxyquinazolin-6-yl)-4-morpholinobut-2-enamide]	≤ 150	≤ 150
COc1cc2ncnc(Nc3cc(-c4ccc(F)cc4F)ccc3OC)c2cc1NC(=O)/C=C/CN1CCOCC1 [Example 316, (E)-N-(4-((2′,4′-difluoro-4-methoxy-[1,1′-biphenyl]-3-yl)amino)-7-methoxyquinazolin-6-yl)-4-morpholinobut-2-enamide]	≤ 150	≤ 150
COc1cc2ncnc(Nc3cc(-c4ccc(F)cc4F)ccc3OC)c2cc1NC(=O)/C=C/CN1CCN(C)CC1 [Example 317, (E)-N-(4-((2′,4′-difluoro-4-methoxy-[1,1′-biphenyl]-3-yl)amino)-7-methoxyquinazolin-6-yl)-4-(4-methylpiperazin-1-yl)but-2-enamide]	≤ 150	≤ 150
COc1cc2ncnc(Nc3cc(-c4ccco4)ccc3OC)c2cc1NC(=O)/C=C/CN1C2COCC1C2 [Example 318, (E)-4-(3-oxa-6-azabicyclo[3.1.1]heptan-6-yl)-N-(4-((5-(furan-2-yl)-2-methoxyphenyl)amino)-7-methoxyquinazolin-6-yl)but-2-enamide]	≤ 150	≤ 150
COc1cc2ncnc(Nc3cc(-c4ccc(F)cc4F)ccc3OC)c2cc1NC(=O)/C=C/CN1C2COCC1C2 [Example 319]	≤ 150	≤ 150
COc1ccc(-c2ccc(F)cc2F)cc1Nc1ncnc2ccc(NC(=O)/C=C/CN(C)C)c(Cl)c12 [Example 320, (E)-N-(5-chloro-4-((2′,4′-difluoro-4-methoxy-[1,1′-biphenyl]-3-yl)amino)quinazolin-6-yl)-4-(dimethylamino)but-2-enamide]	150 to 1000	150 to 1000
COc1ccc(-c2ccco2)cc1Nc1ncnc2ccc(NC(=O)/C=C/CN(C)C)c(Cl)c12 [Example 321, (E)-N-(5-chloro-4-((5-(furan-2-yl)-2-methoxyphenyl)amino)quinazolin-6-yl)-4-(dimethylamino)but-2-enamide]	150 to 1000	> 1000
C=CC(=O)N1CCC2(CC1)CN(c1cc3c(Nc4cc(-c5ccco5)ccc4OC)ncnc3cc1OC)C2 [Example 324, 1-(2-(4-((5-(furan-2-yl)-2-methoxyphenyl)amino)-7-methoxyquinazolin-6-yl)-2,7-diazaspiro[3.5]nonan-7-yl)prop-2-en-1-one]	150 to 1000	> 1000
C=CC(=O)N1CCC2(CC1)CN(c1cc3c(Nc4cc(-c5ccc(F)cc5F)ccc4OC)ncnc3cc1OC)C2 [Example 325, 1-(2-(4-((2′,4′-difluoro-4-methoxy-[1,1′-biphenyl]-3-yl)amino)-7-methoxyquinazolin-6-yl)-2,7-diazaspiro[3.5]nonan-7-yl)prop-2-en-1-one]	150 to 1000	150 to 1000
